From US10626106B2, “Substituted pyrrolidine amides I” (Gruenenthal GmbH, priority 2017, dated 2020)
Read-outs that look alike come from different tables or passages of the source.

Target: T1, Human Glucocorticoid Receptor (hGR) (Homo sapiens, UniProt P04150)
T1 construct: the resultant supernatant (=cytosol of IM9 cells) was centrifuged at 103,000 g for 60 minutes; host or cells: IM9 human lymphoblast cell line (cytosol fraction)
T1 sequence (P04150 1-777): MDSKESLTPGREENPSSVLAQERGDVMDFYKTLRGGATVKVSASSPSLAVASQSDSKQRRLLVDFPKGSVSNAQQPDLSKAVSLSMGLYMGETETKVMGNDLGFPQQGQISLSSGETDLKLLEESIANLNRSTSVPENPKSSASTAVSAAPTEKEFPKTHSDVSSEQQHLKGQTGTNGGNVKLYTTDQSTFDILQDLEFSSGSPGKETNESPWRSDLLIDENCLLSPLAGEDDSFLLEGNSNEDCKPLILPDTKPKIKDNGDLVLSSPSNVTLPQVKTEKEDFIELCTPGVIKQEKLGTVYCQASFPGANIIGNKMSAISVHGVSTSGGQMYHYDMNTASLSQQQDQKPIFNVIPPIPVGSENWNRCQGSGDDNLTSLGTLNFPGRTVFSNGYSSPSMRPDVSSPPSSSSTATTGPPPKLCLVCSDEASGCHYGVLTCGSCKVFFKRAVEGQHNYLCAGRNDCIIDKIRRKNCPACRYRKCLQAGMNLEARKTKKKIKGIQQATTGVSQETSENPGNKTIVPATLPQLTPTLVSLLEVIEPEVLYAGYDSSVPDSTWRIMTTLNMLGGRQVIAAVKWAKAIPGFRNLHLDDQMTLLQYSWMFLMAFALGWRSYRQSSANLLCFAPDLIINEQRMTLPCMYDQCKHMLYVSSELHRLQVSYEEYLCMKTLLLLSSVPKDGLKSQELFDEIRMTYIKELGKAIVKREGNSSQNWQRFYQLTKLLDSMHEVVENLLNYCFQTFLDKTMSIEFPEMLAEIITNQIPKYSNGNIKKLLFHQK
Assay: Human Glucocorticoid Receptor (hGR) Ligand-Binding Assay (competitive 3H-dexamethasone binding, IM9 cytosol)
Settings: read-out: % inhibition hGR at 1 μM
Description: Human Glucocorticoid Receptor (hGR) Ligand-Binding Assay
Potential selective glucocorticoid receptor modulators of this intervention can be tested for their binding affinity at the glucocorticoid receptor using the binding assay described below.
Preferably, the glucocortitcoid receptor extracted from cytosol of IM9 cells is used for competitive radioligand binding assays to calculate the IC50 values and binding affinity (Ki value) of the compounds according to the present invention. Preferably, a fixed concentration of the radioligand 3H-dexamethasone and a range of concentrations of compounds according to the present invention (as unlabeled competitors of dexamethasone) are mixed with the extracted glucocorticoid receptor in order to measure the potency/affinity with which they compete for the binding of the radioligand. Preferably, by using competition curves the IC50 which is the concentration of competing ligand that displaces 50% of the specific binding of the radioligand is determined. Finally this IC50 value is converted to a Ki value.
The human lymphoblast cell line IM9 (ATCC, Bethesda, Md.) were cultivated in RPMI 1640 media containing 10% fetal bovine serum, penicillin (100 U/ml), streptomycin (100 μg/ml), and 2 mM L-glutamine at […] and 7% CO2 in a humidified incubator. Cells were centrifuged for 10 minutes at 1500 g and were washed in PBS and repelleted. Cell were then resuspended in homogenization buffer consisting of: 10 mM TES, 10 mM sodium molybdate, 1 mM EDTA, pH 7.4, 20 mM 2-mercaptoethanol, and 10% glycerol. Disruption of the cells was performed by nitrogen cavitation using 2×15 minutes at 600 to 750 psi nitrogen in a N2 cavitator at 0° C. The cell preparation was then centrifuged at 27,000 g for 15 minutes, and the resultant supernatant (=cytosol of IM9 cells) was centrifuged at 103,000 g for 60 minutes at 4° C. The amount of protein in the supernatant fraction was determined using a BCA assay kit and aliquots were snap frozen in a dry ice-acetone bath and stored at −70° C. Competitive binding assays were done in duplicate in homogenization buffer with a total volume of 200 μl. To this end, 1 mg of IM9 cytosol, 0.05 μCi (1.5 nM) of 3H-dexamethasone […] and compounds according to the present invention (=unlabeled competitors of dexamethasone; range of concentrations) were mixed. The reaction was stopped after incubation at 0° C. for 16 to 18 hours by the addition of 100 μl of a charcoal-dextran mixture (2% activated charcoal, 0.5% dextran in 10 mM Tris, 1 mM EDTA, pH 7.4). Another incubation step at 0° C. for 10 minutes followed before the samples were centrifuged for 5 minutes at 8200 g. 100 μl of the supernatant) was finally assayed for radioactivity by liquid scintillationspectrometry, and the IC50 values were determined graphically and were converted to Ki values.

[1] = compound at 1 μM, competition with 3H-dexamethasone, cytosol of IM9 cells

SMILES | inhibition at 1 µM [%] | inhibition at 1 µM [1] [%]
Cn1cc(-n2ncc3cc(N4C(=O)C[C@H](NC(=O)C(C)(F)F)[C@H]4c4ccccc4)ccc32)ccc1=O [Example 4, 2,2-difluoro-N-((2R,3S)-1-(1-(1-methyl-6-oxo-1,6-dihydropyridin-3-yl)-1H-indazol-5-yl)-5-oxo-2-phenylpyrrolidin-3-yl)propanamide] | > 85 | 
Cn1cc(-n2ncc3cc(N4C(=O)C[C@H](NC(=O)C(C)(F)F)[C@H]4c4cccc(F)c4)ccc32)ccc1=O [Example 5, 2,2-difluoro-N-((2R,3S)-2-(3-fluorophenyl)-1-(1-(1-methyl-6-oxo-1,6-dihydropyridin-3-yl)-1H-indazol-5-yl)-5-oxopyrrolidin-3-yl)propanamide] |  | > 85
Cn1cc(-n2ncc3cc(N4C(=O)C[C@H](NC(=O)C(C)(F)F)[C@H]4c4ccccc4F)ccc32)ccc1=O [Example 6, 2,2-difluoro-N-((2R,3S)-2-(2-fluorophenyl)-1-(1-(1-methyl-6-oxo-1,6-dihydropyridin-3-yl)-1H-indazol-5-yl)-5-oxopyrrolidin-3-yl)propanamide] |  | > 85
COc1cc([C@@H]2[C@@H](NC(=O)C(C)(F)F)CC(=O)N2c2ccc3c(cnn3-c3ccc(=O)n(C)c3)c2)ccc1F [Example 15, 2,2-difluoro-N-((2R,3S)-2-(4-fluoro-3-methoxyphenyl)-1-(1-(1-methyl-6-oxo-1,6-dihydropyridin-3-yl)-1H-indazol-5-yl)-5-oxopyrrolidin-3-yl)propanamide] |  | 60 to 85
Cn1cc(-n2ncc3cc(N4C(=O)C[C@H](NC(=O)C(C)(F)F)[C@H]4c4ccc(F)cc4)ccc32)ccc1=O [Example 17, 2,2-difluoro-N-((2R,3S)-2-(4-fluorophenyl)-1-(1-(1-methyl-6-oxo-1,6-dihydropyridin-3-yl)-1H-indazol-5-yl)-5-oxopyrrolidin-3-yl)propanamide] | > 85 | 
Cn1cc(-n2ncc3cc(N4C(=O)C[C@H](NC(=O)C5(F)CC5)[C@H]4c4ccccc4)ccc32)ccc1=O [Example 18, 1-fluoro-N-((2R,3S)-1-(1-(1-methyl-6-oxo-1,6-dihydropyridin-3-yl)-1H-indazol-5-yl)-5-oxo-2-phenylpyrrolidin-3-yl)cyclopropanecarboxamide] |  | > 85
Cn1cc(-n2ncc3cc(N4C(=O)C[C@H](NC(=O)C5(C)CC5)[C@H]4c4ccccc4)ccc32)ccc1=O [Example 26, 1-methyl-N-((2R,3S)-1-(1-(1-methyl-6-oxo-1,6-dihydropyridin-3-yl)-1H-indazol-5-yl)-5-oxo-2-phenylpyrrolidin-3-yl)cyclopropane-1-carboxamide] |  | 60 to 85
Cn1cc(-n2ncc3cc(N4C(=O)C[C@H](NC(=O)C5CC5)[C@H]4c4ccccc4F)ccc32)ccc1=O [Example 39, N-((2R,3S)-2-(2-fluorophenyl)-1-(1-(1-methyl-6-oxo-1,6-dihydropyridin-3-yl)-1H-indazol-5-yl)-5-oxopyrrolidin-3-yl)cyclopropanecarboxamide] |  | 60 to 85
Cc1ccccc1[C@@H]1[C@@H](NC(=O)C2CC2)CC(=O)N1c1ccc2c(cnn2-c2ccc(=O)n(C)c2)c1 [Example 41, N-((2R,3S)-1-(1-(1-methyl-6-oxo-1,6-dihydropyridin-3-yl)-1H-indazol-5-yl)-5-oxo-2-(o-tolyl)pyrrolidin-3-yl)cyclopropanecarboxamide] |  | 40 to 60
COc1cc([C@@H]2[C@@H](NC(=O)C(C)(F)F)CC(=O)N2c2ccc3c(cnn3-c3ccc(=O)n(C)c3)c2)ccn1 [Example 42, 2,2-difluoro-N-((2R,3S)-2-(2-methoxypyridin-4-yl)-1-(1-(1-methyl-6-oxo-1,6-dihydropyridin-3-yl)-1H-indazol-5-yl)-5-oxopyrrolidin-3-yl)propanamide] |  | 60 to 85
Cc1ccccc1[C@@H]1[C@@H](NC(=O)C(C)(F)F)CC(=O)N1c1ccc2c(cnn2-c2ccc(=O)n(C)c2)c1 [Example 43, 2,2-difluoro-N-((2R,3S)-1-(1-(1-methyl-6-oxo-1,6-dihydropyridin-3-yl)-1H-indazol-5-yl)-5-oxo-2-(o-tolyl)pyrrolidin-3-yl)propanamide] |  | > 85
Cn1cc(-n2ncc3cc(N4C(=O)C[C@H](NC(=O)c5cscn5)[C@H]4c4ccccc4)ccc32)ccc1=O [Example 44, N-[(2R,3S)-1-[1-(1-methyl-6-oxo-3-pyridyl)indazol-5-yl]-5-oxo-2-phenyl-pyrrolidin-3-yl]thiazole-4-carboxamide] |  | 60 to 85
Cn1ccc(C(=O)N[C@H]2CC(=O)N(c3ccc4c(cnn4-c4ccc(=O)n(C)c4)c3)[C@@H]2c2ccccc2)n1 [Example 45, 1-methyl-N-[(2R,3S)-1-[1-(1-methyl-6-oxo-3-pyridyl)indazol-5-yl]-5-oxo-2-phenyl-pyrrolidin-3-yl]pyrazole-3-carboxamide] |  | 60 to 85
Cn1cc(-n2ncc3cc(N4C(=O)C[C@H](NC(=O)[C@H]5CCCO5)[C@H]4c4ccccc4)ccc32)ccc1=O [Example 48, (R)—N-[(2R,3S)-1-[1-(1-methyl-6-oxo-3-pyridyl)indazol-5-yl]-5-oxo-2-phenyl-pyrrolidin-3-yl]tetrahydrofuran-2-carboxamide] |  | 60 to 85
Cn1cc(-n2ncc3cc(N4C(=O)C[C@H](NC(=O)c5ncco5)[C@H]4c4ccccc4)ccc32)ccc1=O [Example 49, N-[(2R,3S)-1-[1-(1-methyl-6-oxo-3-pyridyl)indazol-5-yl]-5-oxo-2-phenyl-pyrrolidin-3-yl]oxazole-2-carboxamide] |  | > 85
Cn1cc(-n2ncc3cc(N4C(=O)C[C@H](NC(=O)c5cocn5)[C@H]4c4ccccc4)ccc32)ccc1=O [Example 50, N-[(2R,3S)-1-[1-(1-methyl-6-oxo-3-pyridyl)indazol-5-yl]-5-oxo-2-phenyl-pyrrolidin-3-yl]oxazole-4-carboxamide] |  | 60 to 85
Cc1nc(C(=O)N[C@H]2CC(=O)N(c3ccc4c(cnn4-c4ccc(=O)n(C)c4)c3)[C@@H]2c2ccccc2)no1 [Example 51, 5-methyl-N-[(2R,3S)-1-[1-(1-methyl-6-oxo-3-pyridyl)indazol-5-yl]-5-oxo-2-phenyl-pyrrolidin-3-yl]-1,2,4-oxadiazole-3-carboxamide] |  | > 85
